Activity calls are given as the source filed them. No cut-off for these calls is given here.
Assays:
JJN-3 [1] = assay: Cytotoxicity against human JJN-3 cells assessed as reduction in cell viability measured after 72 hrs by MTS assay; type: functional, cell-based; conditions: JJN-3, 72 h
JJN-3 [2] = assay: Cytotoxicity against human JJN-3 cells expressing shNT assessed as reduction in cell viability measured after 72 hrs by Celltiter-glo luminescent cell viability assay; type: functional, cell-based; conditions: JJN-3, 72 h
KMS-12-BM [3] = assay: Cytotoxicity against human KMS-12-BM cells assessed as reduction in cell viability measured after 72 hrs by MTS assay; type: functional, cell-based
KMS-12-BM [4] = assay: Cytotoxicity against human KMS-12-BM cells expressing shG9a assessed as reduction in cell viability measured after 72 hrs by Celltiter-glo luminescent cell viability assay; type: functional, cell-based
[5] = Cytotoxicity against human Bortezomib-resistant RPMI-8226 cells assessed as reduction in cell viability measured after 72 hrs by MTS assay; type: functional, cell-based; conditions: Bortezomib-resistant RPMI-8226, 72 h
[6] = target: T1, Histone-lysine N-methyltransferase EHMT2 (Homo sapiens) (UniProt Q96KQ7); assay: Inhibition of G9a in human JJN-3 cells assessed as decrease in NFKB2 expression at cytotoxic IC50 measured after 72 hrs by Western blot analysis; type: cell-based
T1 sequence (whole entry): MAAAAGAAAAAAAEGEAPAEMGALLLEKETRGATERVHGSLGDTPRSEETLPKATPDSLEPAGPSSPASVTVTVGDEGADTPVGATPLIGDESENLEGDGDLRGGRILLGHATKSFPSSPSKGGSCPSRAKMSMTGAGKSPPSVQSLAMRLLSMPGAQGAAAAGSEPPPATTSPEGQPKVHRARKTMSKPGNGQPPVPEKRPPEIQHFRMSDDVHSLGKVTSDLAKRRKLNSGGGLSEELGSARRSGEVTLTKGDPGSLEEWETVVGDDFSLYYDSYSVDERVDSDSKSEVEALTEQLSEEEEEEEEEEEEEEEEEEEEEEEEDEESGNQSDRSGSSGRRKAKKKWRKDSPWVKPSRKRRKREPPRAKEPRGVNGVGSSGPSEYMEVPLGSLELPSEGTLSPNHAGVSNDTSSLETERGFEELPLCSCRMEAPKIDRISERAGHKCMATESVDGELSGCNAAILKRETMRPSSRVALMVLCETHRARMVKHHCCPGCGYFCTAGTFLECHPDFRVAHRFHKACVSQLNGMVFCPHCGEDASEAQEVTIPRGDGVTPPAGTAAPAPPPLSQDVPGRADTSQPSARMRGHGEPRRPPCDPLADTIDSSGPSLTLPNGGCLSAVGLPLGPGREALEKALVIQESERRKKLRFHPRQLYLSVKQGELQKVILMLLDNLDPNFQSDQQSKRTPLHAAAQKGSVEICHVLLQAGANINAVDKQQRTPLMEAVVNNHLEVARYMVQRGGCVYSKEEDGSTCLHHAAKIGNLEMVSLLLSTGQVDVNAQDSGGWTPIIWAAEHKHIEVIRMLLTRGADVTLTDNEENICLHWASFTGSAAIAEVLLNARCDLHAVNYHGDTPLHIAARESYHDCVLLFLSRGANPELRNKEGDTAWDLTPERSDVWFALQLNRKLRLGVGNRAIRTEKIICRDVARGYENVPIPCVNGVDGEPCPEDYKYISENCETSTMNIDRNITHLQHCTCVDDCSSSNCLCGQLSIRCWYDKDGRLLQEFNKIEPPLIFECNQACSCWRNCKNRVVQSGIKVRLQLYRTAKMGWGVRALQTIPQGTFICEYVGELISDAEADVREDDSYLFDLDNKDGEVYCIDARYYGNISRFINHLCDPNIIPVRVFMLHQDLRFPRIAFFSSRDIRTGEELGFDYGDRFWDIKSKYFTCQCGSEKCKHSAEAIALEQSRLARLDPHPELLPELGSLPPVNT

[7] = target: T1, Histone-lysine N-methyltransferase EHMT2 (Homo sapiens); assay: Inhibition of G9a in human JJN-3 cells assessed as increase in BMF mRNA expression at cytotoxic IC50 measured after 72 hrs by qRT-PCR analysis; type: cell-based
[8] = target: Histone-lysine N-methyltransferase EZH2 (Homo sapiens, UniProt Q15910); assay: Inhibition of EZH2 (unknown origin)
Histone-lysine N-methyltransferase EZH2, sequence (Q15910 whole entry): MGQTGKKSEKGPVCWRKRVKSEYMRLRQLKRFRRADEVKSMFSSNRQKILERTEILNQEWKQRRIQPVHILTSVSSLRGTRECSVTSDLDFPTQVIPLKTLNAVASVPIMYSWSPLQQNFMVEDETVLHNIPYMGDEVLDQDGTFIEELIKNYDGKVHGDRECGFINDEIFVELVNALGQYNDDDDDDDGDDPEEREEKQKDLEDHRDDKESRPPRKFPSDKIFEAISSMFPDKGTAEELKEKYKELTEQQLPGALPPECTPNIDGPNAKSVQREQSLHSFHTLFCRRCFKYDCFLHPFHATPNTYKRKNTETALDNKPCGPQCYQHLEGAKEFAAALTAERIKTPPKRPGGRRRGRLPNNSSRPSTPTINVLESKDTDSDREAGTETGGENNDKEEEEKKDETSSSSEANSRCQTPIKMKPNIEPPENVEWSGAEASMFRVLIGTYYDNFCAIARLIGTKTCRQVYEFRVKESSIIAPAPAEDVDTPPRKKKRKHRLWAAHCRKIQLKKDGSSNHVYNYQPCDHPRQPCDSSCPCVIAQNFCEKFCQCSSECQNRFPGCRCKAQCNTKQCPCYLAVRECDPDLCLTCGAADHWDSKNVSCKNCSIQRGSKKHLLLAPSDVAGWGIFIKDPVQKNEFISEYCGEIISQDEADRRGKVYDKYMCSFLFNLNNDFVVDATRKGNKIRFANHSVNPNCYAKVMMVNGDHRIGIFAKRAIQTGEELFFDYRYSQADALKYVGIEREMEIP

KMS-12-BM [9] = assay: Cytotoxicity against human KMS-12-BM cells expressing shNT assessed as reduction in cell viability measured after 72 hrs by Celltiter-glo luminescent cell viability assay; type: functional, cell-based
KMS-12-BM [10] = assay: Cytotoxicity against human KMS-12-BM cells assessed as reduction in cell viability measured after 72 hrs by Celltiter-glo luminescent cell viability assay; type: functional, cell-based
JJN-3 [11] = assay: Cytotoxicity against human JJN-3 cells assessed as reduction in cell viability measured after 72 hrs by Celltiter-glo luminescent cell viability assay; type: functional, cell-based; conditions: JJN-3, 72 h
[12] = Cytotoxicity against human Bortezomib-resistant RPMI-8226 cells assessed as reduction in cell viability measured after 72 hrs by Celltiter-glo luminescent cell viability assay; type: functional, cell-based; conditions: Bortezomib-resistant RPMI-8226, 72 h
[13] = target: T1, Histone-lysine N-methyltransferase EHMT2 (Homo sapiens); assay: Inhibition of G9a in human JJN-3 cells assessed as reduction in RelB mRNA expression at cytotoxic IC50 measured after 72 hrs by qRT-PCR analysis; type: cell-based
JJN-3 [14] = assay: Cytotoxicity against human JJN-3 cells assessed as decrease in number of colonies incubated for 14 days by colony formation assay; type: functional, cell-based; conditions: time 14.0 day
[15] = target: T1, Histone-lysine N-methyltransferase EHMT2 (Homo sapiens); assay: Inhibition of G9a in human JJN-3 cells assessed as decrease in p100 expression at cytotoxic IC50 measured after 72 hrs by Western blot analysis; type: cell-based
KMS-12-BM [16] = assay: Cytotoxicity against human KMS-12-BM cells assessed as decrease in number of colonies incubated for 14 days by colony formation assay; type: functional, cell-based; conditions: time 14.0 day
JJN-3 [17] = assay: Cytotoxicity against human JJN-3 cells expressing shG9a assessed as reduction in cell viability measured after 72 hrs by Celltiter-glo luminescent cell viability assay; type: functional, cell-based; conditions: JJN-3, 72 h
[18] = Cytotoxicity against human MSC cells assessed as reduction in cell viability measured after 72 hrs by MTS assay; type: toxicity, cell-based
KMS-12-BM [19] = assay: Effect on G9a expression in human KMS-12-BM cells at cytotoxic IC50 measured after 72 hrs by Western blot analysis; type: functional, cell-based
[20] = Cytotoxicity against human CD38-positive cells assessed as reduction in cell viability measured after 72 hrs by Celltiter-glo luminescent cell viability assay; type: toxicity, cell-based
[21] = target: T1, Histone-lysine N-methyltransferase EHMT2 (Homo sapiens); assay: Inhibition of G9a in human JJN-3 cells assessed as decrease in p52 expression at cytotoxic IC50 measured after 72 hrs by Western blot analysis; type: cell-based
RPMI-8226 [22] = assay: Cytotoxicity against human RPMI-8226 cells assessed as reduction in cell viability measured after 72 hrs by MTS assay; type: functional, cell-based; conditions: RPMI-8226, 72 h
[23] = target: T1, Histone-lysine N-methyltransferase EHMT2 (Homo sapiens); assay: Inhibition of G9a in human JJN-3 cells assessed as increase in Bim mRNA expression at cytotoxic IC50 measured after 72 hrs by qRT-PCR analysis; type: cell-based
[24] = target: T1, Histone-lysine N-methyltransferase EHMT2 (Homo sapiens); assay: Inhibition of G9a in human KMS-12-BM cells assessed as reduction in H3K9me2 level at cytotoxic IC50 measured after 72 hrs by Western blot analysis; type: cell-based
JJN-3 [25] = assay: Cytotoxicity against human JJN-3 cells assessed as reduction in colony size incubated for 14 days by colony formation assay; type: functional, cell-based; conditions: time 14.0 day
KMS-12-BM [26] = assay: Cytotoxicity against human KMS-12-BM cells assessed as reduction in colony size incubated for 14 days by colony formation assay; type: functional, cell-based; conditions: time 14.0 day
RPMI-8226 [27] = assay: Cytotoxicity against human RPMI-8226 cells assessed as reduction in cell viability measured after 72 hrs by Celltiter-glo luminescent cell viability assay; type: functional, cell-based; conditions: RPMI-8226, 72 h

COc1cc2c(NC3CCN(C(C)C)CC3)nc(N3CCC(F)(F)CC3)nc2cc1OCCCN1CCCC1
IC50 (JJN-3 [1]): 19 µM
IC50 (JJN-3 [2]): 6.81 µM
IC50 (KMS-12-BM [3]): 20.3 µM
IC50 (KMS-12-BM [4]): 58.7 µM
IC50 [5]: 12.6 µM
inhibition [6]: Active
inhibition [7]: Active
IC50 [8]: 5 µM
IC50 (KMS-12-BM [9]): 23.7 µM
IC50 (KMS-12-BM [10]): 10.8 µM
IC50 (JJN-3 [11]): 5.85 µM
IC50 [12]: 25.4 µM
inhibition [13]: Active
Activity (JJN-3 [14]): Active
inhibition [15]: Active
Activity (KMS-12-BM [16]): Active
IC50 (JJN-3 [17]): 17.8 µM
IC50 at 72 h [18]: 36.9 µM
Activity (KMS-12-BM [19]): inactive
IC50 at 72 h [20]: 6.91 µM
inhibition [21]: Active
IC50 (RPMI-8226 [22]): 26.9 µM
inhibition [23]: Active
inhibition [24]: Active
Activity (JJN-3 [25]): Active
Activity (KMS-12-BM [26]): Active
IC50 (RPMI-8226 [27]): 22 µM

Source: ChEMBL document CHEMBL5712916, “Frequent upregulation of G9a promotes RelB-dependent proliferation and survival in multiple myeloma” (Exp Hematol Oncol, 2020)
